Reference: patent US9260481B2, “Peptide derivatives as antibiotics” (priority 2011, dated 2016)
Values after ≈ are worked out from the molar mass of the structure shown. Where two headings read alike, the source gives them in different places. Numbered stars: 1 amine (or outer) side, 2 acyl side, 3 side chain; on linkers, the order of the positions; unused ones are H or OH. Square brackets hold non-standard residues; d marks the D form. Peptide text beside a SMILES is read from it. * marks the point of attachment. ξ: configuration not given here. X1 = NCC(O)CCC(N[*:1])C(=O)[*:2]; ΔZArg = N=C(N)NCC/C=C(\N)C(=O)O; ξDab(3-OH) = NCC(O)C(N)C(=O)O; Orn = NCCC[CH](N)C(=O)O; NH(CH2)4NH2 = NCCCCN*

Legend:
P. aeruginosa ATCC 27853 [1] = assay: Bacterial killing curves (time-to-kill); assay type: cell-based, Pseudomonas aeruginosa; conditions: growing P. aeruginosa ATCC 27853, at four-fold the MIC
Description: (§1) Bacterial killing curves were carried out by inoculating S. aureus ATCC 13709 and P. aeruginosa ATCC 27853 with Odilomycin A concentration equal to four-fold the MIC. […] S. aureus and P. aeruginosa inoculi were prepared from colonies grown overnight in MHB. Antibiotics concentrations in the flask were adjusted in MHB according to the desired concentration. Culture tubes containing 10 mL were inoculated with S. aureus or P. aeruginosa at an approximate inoculum of 10^5 CFU/mL. Samples were drawn and bacteria were counted at 0, 1, 2, 3, 4, 6 and 24 h of incubation at 37° C. Thus, after vortexing the culture tubes, two 50 μL samples were removed and serially diluted with MHB. After each dilution step, 20 μL was plated onto LB agar plates, which were incubated for 24 h at 37° C. Afterwards the colonies were counted and back-extrapolated to the original volume to determine the initial concentration (CFU/mL).

Cytotoxicity test (MTS) = assay type: cell-based; conditions: human; for CC50 at 72 h: MTS; for viability at 72 h: dose of up to 100 μg/mL, read-out: cell viability
Description: The cytotoxicity of the Odilomycins A-C was investigated against Human colon adenocarcinoma (HT29) cells and Human normal lung fibroblasts (MRC-5) cells. 200 μL of the cell suspension of HT29 (human colorectal adenocarcinoma) prepared in RPMI 1640+1% L-Glutamine supplemented with 10% (v/v) fetal calf serum and 200 μL of the cell suspension of MRC5 (human lung fibroblast) prepared in Dulbecco's modified Eagle's medium supplemented with 25 mM glucose and 10% (v/v) fetal calf serum were inoculated into 96-well plates.
The inoculating cell number was 800 cells per well for HT29 and 2100 cells per well for MRC-5. The microplates were incubated at 37° C. for 24 h with 5% of CO2.
Twenty four hours later, Odilomycin A, B or C dissolved in water were added for 72 h at a final concentration from 0.78 μg/mL to 100 μg/mL in a fixed volume of water (1% final concentration). […] Experiments were done in triplicate.

S. aureus ATCC 25923 = assay type: cell-based, Staphylococcus aureus; conditions: ATCC 25923
Text: (§2) Vancomycin, rifampicin, kanamycin, gentamicin, ampicillin, ciprofloxacin and tetracycline (Sigma-Aldrich) were provided as standard powders by the manufacturers.

[2] = system: S. aureus Smith ATCC 13709; assay: Acute lethal infection in mice; assay type: in vivo, ICR mice; conditions: for Survival of all treated mice: S. aureus infection; for Animal deaths Day 0 / Animal deaths Day 1 / Animal deaths Day 3 / Animal deaths Day 4 / Animal deaths Day 5 / Animal deaths Day 2: mice, S. aureus 5 log10 CFU/mouse IP, n=6
Description: Female ICR mice ordered from Harlan Laboratories (Indianapolis, Ind.) weighing 19-21 g were used in experiments of acute lethal infection. Mice were fully immunocompetent. Infection was induced by inoculating intraperitoneally in mice a bacterial suspension of S. aureus Smith ATCC 13709. The bacterial challenges (ca 5 log10 CFU/mouse) were given suspended in 0.5 mL of 20% hog mucin. […] Mortality was tracked out to 5 days post challenge. Animals that remained surviving at the end of the study were humanely euthanized.

K. pneumoniae ATCC 43816 = assay type: cell-based, Klebsiella pneumoniae; conditions: ATCC 43816
Text: as §2

S. aureus ATCC 13709 = assay: Bacterial killing curves (time-to-kill); assay type: cell-based, Staphylococcus aureus; conditions: growing S. aureus ATCC 13709, at four-fold the MIC
Description: as §1

P. aeruginosa ATCC 27853 [3] = assay type: cell-based, Pseudomonas aeruginosa; conditions: ATCC 27853, 24 h
Description: Minimal bactericidal concentrations (MBCs) were established by extending the MIC procedure to the evaluation of bactericidal activity. After 24 hours, 10 μL were drawn from the wells, serially diluted and then spotted onto suitable agar plates. The plates were incubated at 37° C. overnight. […] All the experiments were done in triplicate.

Streptococcus pneumonia = system: Streptococcus pneumonia
Description: (§3) The minimal inhibitory concentrations (MIC) were determined according to the Clinical and Laboratory Standards Institute (CLSI) conditions guidelines detailed in Table 7. Assays were performed in triplicate.
(§4) Preparation of Inocula. Five to 10 well-isolated colonies were picked and resuspended in 3 ml sterile saline. The inoculum was re-suspended by vigorous shaking on a vortex mixer for 15 s. Turbidity was adjusted to McFarland standard 0.5 ([…]). The inoculum was further diluted in the appropriate media (Table 7) to give a final inoculum in each well of ˜2-8×10^5 CFU/ml.
(§5) Addition of Test Article. Stock solutions of Odilomycin A or comparator were diluted in the appropriate media to give a maximum starting concentration of 50 μg/mL in the assay. 50 μL of medium was dispensed into each well in columns two to 12 of a 96 well plate. 100 μL of the appropriate test compound solution (100 μg/mL) was dispensed into each well in column one. In the case of M. catarrhalis, M. haemolytica and P. multocida these values were doubled (a final assay volume of 200 μL was used). […] Columns 11 and 12 served as positive (no drug or test article, inoculum added), and negative (no drug, test article, or inoculum added) growth controls respectively.
(§6) Addition of Bacterial Strains. 50 μL of each inoculum suspension was added to the appropriate wells, resulting in a final volume of 100 μL consisting of 50 μL diluted compound or diluents, and 50 μL of inoculum or broth alone.

Mannheimia haemolytica = system: Mannheimia haemolytica
Description: as §3, §4, §5, §6

Streptococcus pyogenes = system: Streptococcus pyogenes
Description: as §3, §4, §5, §6

Enterococcus faecalis = system: Enterococcus faecalis
Description: as §3, §4, §5, §6

Bacteroides fragilis = assay: microbe, parasite or virus in culture
Description: as §3, §4, §5, §6

Staphylococcus aureus = assay: microbe, parasite or virus in culture; conditions: for Antibacterial activity (MIC): unit not given in table (MICs in μg/mL)
Description: as §3, §4, §5, §6

[4] = HT29 colon adenocarcinoma cells
[5] = MRC-5 normal lung fibroblasts, MRC-5 cells
[6] = Odilomycin A 1.0 mg/kg IV at 1 hr
[7] = Odilomycin A 2.5 mg/kg IV at 1 hr
[8] = Odilomycin A 5.0 mg/kg IV at 1 hr

Compound: N=C(N)NCC/C=C(\NC(=O)C(CCC(O)CN)NC(=O)C(Cc1cnc[nH]1)NC(=O)C1CCCN1C(=O)C(CCCN)NC(=O)CNC(=O)C(NC(=O)C(NC(=O)C(N)CCCCN)C(O)CN)C(O)CN)C(=O)NC(CCC(O)CN)C(=O)NCCCCN (stereo not drawn) [Odilomycin A, Lys-(3-hydroxy-2,4-diaminobutanoic acid)-(3-hydroxy-2,4-diaminobutanoic acid)-Gly-Ornithine-Pro-His-(5-hydroxylysine)-(2,3-dehydroarginine)-(5-hydroxylysine)-(1,4-diaminobutane)] (H-K[ξDab(3-OH)][ξDab(3-OH)]G[Orn]PH[X1][ΔZArg][X1]-{NH(CH2)4NH2}; configuration not given here)
- Time to kill 100% of bacteria (P. aeruginosa ATCC 27853 [1]): ≤ 2 h
- CC50 at 72 h (Cytotoxicity test (MTS); [4]): > 100 µg/mL
- viability at 72 h (Cytotoxicity test (MTS); [4]): 100%
- CC50 at 72 h (Cytotoxicity test (MTS); [5]): > 100 µg/mL
- viability at 72 h (Cytotoxicity test (MTS); [5]): 100%
- MIC antibiotic alone (S. aureus ATCC 25923): 0.39 µg/mL (≈ 0.301 µM)
- Survival of all treated mice ([2]; Odilomycin A 2.5 mg/kg IV): survived up to 5 days after infection
- Survival of all treated mice ([2]; Odilomycin A 5.0 mg/kg IV): survived up to 5 days after infection
- Animal deaths Day 0 [2, 6]: 0
- Animal deaths Day 1 [2, 6]: 0
- Animal deaths Day 3 [2, 6]: 0
- Animal deaths Day 4 [2, 6]: 0
- Animal deaths Day 5 [2, 6]: 0
- Animal deaths Day 0 [2, 7]: 0
- Animal deaths Day 1 [2, 7]: 0
- Animal deaths Day 2 [2, 7]: 0
- Animal deaths Day 3 [2, 7]: 0
- Animal deaths Day 4 [2, 7]: 0
- Animal deaths Day 5 [2, 7]: 0
- Animal deaths Day 0 [2, 8]: 0
- Animal deaths Day 1 [2, 8]: 0
- Animal deaths Day 2 [2, 8]: 0
- Animal deaths Day 3 [2, 8]: 0
- Animal deaths Day 4 [2, 8]: 0
- Animal deaths Day 5 [2, 8]: 0
- MIC antibiotic alone (K. pneumoniae ATCC 43816): 25 µg/mL (≈ 19.3 µM)
- Time to kill 100% of bacteria (S. aureus ATCC 13709): ≤ 3 h
- MBC (P. aeruginosa ATCC 27853 [3]): 6.25 µg/mL (≈ 4.82 µM)
- MIC (Streptococcus pneumonia): >50.0 µg/mL
- antibacterial activity (Streptococcus pneumonia; S. pneumoniae): Weak or no antibacterial activity
- MIC (Mannheimia haemolytica): 50.0 µg/mL (≈ 38.6 µM)
- MIC (Streptococcus pyogenes): 50.0 µg/mL (≈ 38.6 µM)
- antibacterial activity (Streptococcus pyogenes; S. pyogenes): Weak or no antibacterial activity
- MIC (Enterococcus faecalis): >50.0 µg/mL
- antibacterial activity (Enterococcus faecalis; E. faecalis): Weak or no antibacterial activity
- MIC (Bacteroides fragilis): 1.56 µg/mL (≈ 1.2 µM)
- MICs (Staphylococcus aureus): < 1 µg/mL
- Antibacterial activity (MIC) (Staphylococcus aureus; S. aureus multiresistant clinical isolate 16666): <0.19
- Antibacterial activity (MIC) (Staphylococcus aureus; S. aureus multiresistant clinical isolate 20364): 0.78
- Antibacterial activity (MIC) (Staphylococcus aureus; S. aureus multiresistant clinical isolate 20681): 1.56
- Antibacterial activity (MIC) (Staphylococcus aureus; S. aureus multiresistant clinical isolate 21840): 0.39
- Antibacterial activity (MIC) (Staphylococcus aureus; S. aureus multiresistant clinical isolate 23305): 0.78
